Results on four compounds are retold here after article PMC8550792, “Evolution of kinase polypharmacology across HSP90 drug discovery” (Cell Chemical Biology, 2021).

Common to all, as to assay: biochemical
Format in all cases: biochemical

In test [1] the target is T1, 382 unique human kinases (Homo sapiens, UniProt O43293).
T1 construct: purchased Reaction Biology (HotSpot contract assay)
The conditions noted are these: kinase ZIPK/DAPK3, compound 10 uM; for remaining activity at 10 µM: read-out: % Enzyme Activity (relative to DMSO controls).

In test [2] the target is T2, 382 unique human kinases (Homo sapiens, UniProt O43318).
T2 construct: purchased Reaction Biology (HotSpot contract assay)
T2 sequence (O43318 1-606): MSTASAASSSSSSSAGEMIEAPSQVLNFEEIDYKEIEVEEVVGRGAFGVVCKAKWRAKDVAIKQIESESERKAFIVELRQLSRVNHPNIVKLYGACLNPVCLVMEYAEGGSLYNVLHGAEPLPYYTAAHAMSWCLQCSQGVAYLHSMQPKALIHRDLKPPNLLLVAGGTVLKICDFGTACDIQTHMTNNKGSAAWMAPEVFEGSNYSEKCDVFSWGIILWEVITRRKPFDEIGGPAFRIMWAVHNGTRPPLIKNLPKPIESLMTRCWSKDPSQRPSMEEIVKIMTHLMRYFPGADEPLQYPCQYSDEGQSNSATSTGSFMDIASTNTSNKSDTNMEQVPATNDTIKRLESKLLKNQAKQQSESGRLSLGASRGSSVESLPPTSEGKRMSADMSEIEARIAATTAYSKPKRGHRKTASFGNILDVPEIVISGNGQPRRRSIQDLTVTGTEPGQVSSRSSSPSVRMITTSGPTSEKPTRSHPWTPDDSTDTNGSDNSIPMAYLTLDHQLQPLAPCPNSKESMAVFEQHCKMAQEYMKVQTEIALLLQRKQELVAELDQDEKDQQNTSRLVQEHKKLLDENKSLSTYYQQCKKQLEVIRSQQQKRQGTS
The following applies: kinase TAK1, compound 10 uM; for remaining activity at 10 µM: read-out: % Enzyme Activity (relative to DMSO controls).

Test [3] has as its target T3, 382 unique human kinases (Homo sapiens, UniProt P07949, S904F).
T3 construct: purchased Reaction Biology (HotSpot contract assay)
The following applies: RET (S904F), 10 uM; for remaining activity at 10 µM: read-out: % Enzyme Activity (relative to DMSO controls).

Test [4] concerns the target T4, 382 unique human kinases (Homo sapiens, UniProt P08581).
T4 construct: purchased Reaction Biology (HotSpot contract assay)
The following applies: kinase c-MET, compound 10 uM; for remaining activity at 10 µM: read-out: % Enzyme Activity (relative to DMSO controls).

The target in test [5] is T5, 382 unique human kinases (Homo sapiens, UniProt P08581, F1200I).
T5 construct: purchased Reaction Biology (HotSpot contract assay)
The following applies: kinase c-MET (F1200I), compound 10 uM; for remaining activity at 10 µM: read-out: % Enzyme Activity (relative to DMSO controls).

Test [6] concerns the target T6, 382 unique human kinases (Homo sapiens, UniProt P22612).
T6 construct: purchased Reaction Biology (HotSpot contract assay)
The following applies: kinase PKAcg, compound 10 uM; for remaining activity at 10 µM: read-out: % Enzyme Activity (relative to DMSO controls).

Test [7] has as its target T7, 382 unique human kinases (Homo sapiens, UniProt Q04771, R206H).
T7 construct: purchased Reaction Biology (HotSpot contract assay)
T7 sequence (Q04771 21-509 R206H): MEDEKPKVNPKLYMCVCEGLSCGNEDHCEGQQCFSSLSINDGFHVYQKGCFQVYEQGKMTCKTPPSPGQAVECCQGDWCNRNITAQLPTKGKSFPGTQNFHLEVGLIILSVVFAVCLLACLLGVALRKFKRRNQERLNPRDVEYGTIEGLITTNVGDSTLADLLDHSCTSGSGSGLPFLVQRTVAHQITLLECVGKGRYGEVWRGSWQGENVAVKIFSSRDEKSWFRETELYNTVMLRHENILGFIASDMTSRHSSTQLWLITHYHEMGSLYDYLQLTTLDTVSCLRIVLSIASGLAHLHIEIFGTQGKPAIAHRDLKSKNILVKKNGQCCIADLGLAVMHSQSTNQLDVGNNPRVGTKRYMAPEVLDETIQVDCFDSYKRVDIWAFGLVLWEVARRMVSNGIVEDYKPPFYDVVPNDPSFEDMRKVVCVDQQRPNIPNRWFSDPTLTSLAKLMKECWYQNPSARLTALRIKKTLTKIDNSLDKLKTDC
The conditions noted are these: ALK2 (R206H), compound at 10 uM, duplicate values; for remaining activity at 10 µM: read-out: % Enzyme Activity (relative to DMSO controls).

Test [8] concerns the target T8, 382 unique human kinases (Homo sapiens, UniProt Q13627).
T8 construct: purchased Reaction Biology (HotSpot contract assay)
The conditions noted are these: DYRK1/DYRK1A, 10 uM; for remaining activity at 10 µM: read-out: % Enzyme Activity (relative to DMSO controls).

In test [9] the target is T9, 382 unique human kinases (Homo sapiens, UniProt Q9P2K8).
T9 construct: purchased Reaction Biology (HotSpot contract assay)
The conditions noted are these: kinase EIF2AK4, compound 10 uM; for remaining activity at 10 µM: read-out: % Enzyme Activity (relative to DMSO controls).

Test [10] has as its target T10, 382 unique human kinases (Homo sapiens, UniProt P07949, M918T).
T10 construct: purchased Reaction Biology (HotSpot contract assay)
The following applies: RET (M918T), 10 uM; for remaining activity at 10 µM: read-out: % Enzyme Activity (relative to DMSO controls).

In test [11] the target is T11, 382 unique human kinases (Homo sapiens, UniProt P07949, R749T).
T11 construct: purchased Reaction Biology (HotSpot contract assay)
The following applies: RET (R749T), 10 uM; for remaining activity at 10 µM: read-out: % Enzyme Activity (relative to DMSO controls).

Test [12] addresses T12, 382 unique human kinases (Homo sapiens, UniProt P10721, D816F).
T12 construct: purchased Reaction Biology (HotSpot contract assay)
The conditions noted are these: c-Kit (D816F), [ATP] 20 µM, compound 10 uM; for remaining activity at 10 µM: read-out: % Enzyme Activity (relative to DMSO controls).

Test [13] addresses T13, 382 unique human kinases (Homo sapiens, UniProt P16234, D842V).
T13 construct: purchased Reaction Biology (HotSpot contract assay)
The following applies: PDGFRa (D842V), [ATP] 1 µM, compound 10 uM; for remaining activity at 10 µM: read-out: % Enzyme Activity (relative to DMSO controls).

Test [14] concerns the target T14, 382 unique human kinases (Homo sapiens, UniProt P21802, V564F).
T14 construct: purchased Reaction Biology (HotSpot contract assay)
The conditions noted are these: FGFR2 (V564F), [ATP] 30 µM, compound 10 uM; for remaining activity at 10 µM: read-out: % Enzyme Activity (relative to DMSO controls).

The target in test [15] is T15, 382 unique human kinases (Homo sapiens, UniProt P51812, L608F).
T15 construct: purchased Reaction Biology (HotSpot contract assay)
The conditions noted are these: RSK2 (L608F), [ATP] 10 µM, compound 10 uM; for remaining activity at 10 µM: read-out: % Enzyme Activity (relative to DMSO controls).

The target in test [16] is T16, 382 unique human kinases (Homo sapiens, UniProt Q9UM73, F1174S).
T16 construct: purchased Reaction Biology (HotSpot contract assay)
The following applies: ALK (F1174S), [ATP] 20 µM, compound 10 uM; for remaining activity at 10 µM: read-out: % Enzyme Activity (relative to DMSO controls).

In test [17] the target is T17, 382 unique human kinases (Homo sapiens, UniProt Q9UQB9).
T17 construct: purchased Reaction Biology (HotSpot contract assay)
T17 sequence (Q9UQB9 1-309): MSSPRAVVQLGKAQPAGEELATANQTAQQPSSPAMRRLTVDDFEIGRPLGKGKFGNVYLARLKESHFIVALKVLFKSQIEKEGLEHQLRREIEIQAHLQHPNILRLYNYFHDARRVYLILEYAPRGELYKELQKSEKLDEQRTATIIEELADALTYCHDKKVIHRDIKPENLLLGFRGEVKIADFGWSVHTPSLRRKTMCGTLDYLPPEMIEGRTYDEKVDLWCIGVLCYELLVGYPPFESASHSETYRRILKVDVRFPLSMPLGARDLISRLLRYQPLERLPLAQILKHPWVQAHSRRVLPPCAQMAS
The following applies: Aurora C, 10 uM; for remaining activity at 10 µM: read-out: % Enzyme Activity (relative to DMSO controls).

T12 sequence (P10721 26-976 D816F): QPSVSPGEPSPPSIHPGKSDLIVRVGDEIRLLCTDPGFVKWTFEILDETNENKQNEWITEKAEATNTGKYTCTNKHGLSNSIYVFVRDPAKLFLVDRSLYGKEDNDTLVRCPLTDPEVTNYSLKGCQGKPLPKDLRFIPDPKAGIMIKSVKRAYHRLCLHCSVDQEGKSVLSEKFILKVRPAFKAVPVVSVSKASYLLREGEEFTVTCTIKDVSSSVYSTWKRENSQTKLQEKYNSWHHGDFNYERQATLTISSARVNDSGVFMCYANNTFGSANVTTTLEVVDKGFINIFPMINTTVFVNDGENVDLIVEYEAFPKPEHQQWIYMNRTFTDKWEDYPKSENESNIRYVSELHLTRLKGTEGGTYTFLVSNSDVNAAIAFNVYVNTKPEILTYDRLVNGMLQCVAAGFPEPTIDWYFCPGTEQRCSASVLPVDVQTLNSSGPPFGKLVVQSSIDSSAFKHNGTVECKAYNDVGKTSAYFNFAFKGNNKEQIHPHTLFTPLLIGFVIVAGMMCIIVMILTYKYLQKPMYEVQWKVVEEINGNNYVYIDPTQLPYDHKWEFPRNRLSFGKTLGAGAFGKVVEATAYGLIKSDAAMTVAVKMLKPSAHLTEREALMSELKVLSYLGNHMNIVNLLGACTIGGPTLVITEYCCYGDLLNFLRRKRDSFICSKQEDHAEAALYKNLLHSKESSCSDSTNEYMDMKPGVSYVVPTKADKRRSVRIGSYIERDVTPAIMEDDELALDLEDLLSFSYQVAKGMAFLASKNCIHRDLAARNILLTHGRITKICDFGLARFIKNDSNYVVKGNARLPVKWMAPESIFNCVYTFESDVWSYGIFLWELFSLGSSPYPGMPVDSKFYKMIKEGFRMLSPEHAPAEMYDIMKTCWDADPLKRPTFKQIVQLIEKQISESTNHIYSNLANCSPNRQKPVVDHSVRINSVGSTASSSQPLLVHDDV
T1 sequence (O43293 whole entry): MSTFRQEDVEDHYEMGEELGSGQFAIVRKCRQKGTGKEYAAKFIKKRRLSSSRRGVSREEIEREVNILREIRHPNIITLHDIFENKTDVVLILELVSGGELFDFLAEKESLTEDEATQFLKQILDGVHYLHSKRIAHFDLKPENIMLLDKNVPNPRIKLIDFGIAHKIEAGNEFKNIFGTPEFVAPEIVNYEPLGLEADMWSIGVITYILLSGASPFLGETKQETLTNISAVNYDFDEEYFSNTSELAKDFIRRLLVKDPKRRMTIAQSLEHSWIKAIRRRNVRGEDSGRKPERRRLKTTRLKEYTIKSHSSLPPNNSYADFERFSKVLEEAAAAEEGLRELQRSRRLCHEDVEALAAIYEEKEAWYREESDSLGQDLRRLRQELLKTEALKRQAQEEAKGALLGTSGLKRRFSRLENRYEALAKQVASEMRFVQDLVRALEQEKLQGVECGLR
T10 sequence (P07949 29-1114 M918T): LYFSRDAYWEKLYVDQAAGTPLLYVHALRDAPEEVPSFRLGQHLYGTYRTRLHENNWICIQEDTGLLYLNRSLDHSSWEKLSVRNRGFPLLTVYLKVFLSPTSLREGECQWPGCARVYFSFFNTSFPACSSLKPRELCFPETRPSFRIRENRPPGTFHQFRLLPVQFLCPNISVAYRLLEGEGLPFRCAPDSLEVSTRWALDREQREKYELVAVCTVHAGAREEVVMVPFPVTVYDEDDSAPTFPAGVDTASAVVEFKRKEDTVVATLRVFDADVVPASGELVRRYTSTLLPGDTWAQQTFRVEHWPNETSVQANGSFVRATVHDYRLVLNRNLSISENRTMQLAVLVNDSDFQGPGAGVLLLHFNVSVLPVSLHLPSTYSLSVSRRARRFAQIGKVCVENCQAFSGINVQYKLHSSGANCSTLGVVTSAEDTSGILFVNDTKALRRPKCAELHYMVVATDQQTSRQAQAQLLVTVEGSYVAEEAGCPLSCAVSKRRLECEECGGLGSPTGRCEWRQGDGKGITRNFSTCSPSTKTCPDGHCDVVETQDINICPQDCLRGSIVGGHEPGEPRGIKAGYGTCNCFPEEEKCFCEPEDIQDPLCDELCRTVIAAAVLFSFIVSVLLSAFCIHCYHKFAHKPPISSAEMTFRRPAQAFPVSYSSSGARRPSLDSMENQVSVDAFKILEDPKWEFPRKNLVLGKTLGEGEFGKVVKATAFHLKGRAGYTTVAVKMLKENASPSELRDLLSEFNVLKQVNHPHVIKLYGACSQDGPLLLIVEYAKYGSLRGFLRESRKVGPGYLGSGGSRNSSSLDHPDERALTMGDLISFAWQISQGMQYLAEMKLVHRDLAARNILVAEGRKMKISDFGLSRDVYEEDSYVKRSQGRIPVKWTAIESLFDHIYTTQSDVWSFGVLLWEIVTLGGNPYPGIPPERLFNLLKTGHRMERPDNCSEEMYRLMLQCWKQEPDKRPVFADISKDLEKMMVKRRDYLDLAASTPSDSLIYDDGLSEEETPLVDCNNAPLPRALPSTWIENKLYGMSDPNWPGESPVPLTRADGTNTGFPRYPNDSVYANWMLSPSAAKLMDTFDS
T13 sequence (P16234 24-1089 D842V): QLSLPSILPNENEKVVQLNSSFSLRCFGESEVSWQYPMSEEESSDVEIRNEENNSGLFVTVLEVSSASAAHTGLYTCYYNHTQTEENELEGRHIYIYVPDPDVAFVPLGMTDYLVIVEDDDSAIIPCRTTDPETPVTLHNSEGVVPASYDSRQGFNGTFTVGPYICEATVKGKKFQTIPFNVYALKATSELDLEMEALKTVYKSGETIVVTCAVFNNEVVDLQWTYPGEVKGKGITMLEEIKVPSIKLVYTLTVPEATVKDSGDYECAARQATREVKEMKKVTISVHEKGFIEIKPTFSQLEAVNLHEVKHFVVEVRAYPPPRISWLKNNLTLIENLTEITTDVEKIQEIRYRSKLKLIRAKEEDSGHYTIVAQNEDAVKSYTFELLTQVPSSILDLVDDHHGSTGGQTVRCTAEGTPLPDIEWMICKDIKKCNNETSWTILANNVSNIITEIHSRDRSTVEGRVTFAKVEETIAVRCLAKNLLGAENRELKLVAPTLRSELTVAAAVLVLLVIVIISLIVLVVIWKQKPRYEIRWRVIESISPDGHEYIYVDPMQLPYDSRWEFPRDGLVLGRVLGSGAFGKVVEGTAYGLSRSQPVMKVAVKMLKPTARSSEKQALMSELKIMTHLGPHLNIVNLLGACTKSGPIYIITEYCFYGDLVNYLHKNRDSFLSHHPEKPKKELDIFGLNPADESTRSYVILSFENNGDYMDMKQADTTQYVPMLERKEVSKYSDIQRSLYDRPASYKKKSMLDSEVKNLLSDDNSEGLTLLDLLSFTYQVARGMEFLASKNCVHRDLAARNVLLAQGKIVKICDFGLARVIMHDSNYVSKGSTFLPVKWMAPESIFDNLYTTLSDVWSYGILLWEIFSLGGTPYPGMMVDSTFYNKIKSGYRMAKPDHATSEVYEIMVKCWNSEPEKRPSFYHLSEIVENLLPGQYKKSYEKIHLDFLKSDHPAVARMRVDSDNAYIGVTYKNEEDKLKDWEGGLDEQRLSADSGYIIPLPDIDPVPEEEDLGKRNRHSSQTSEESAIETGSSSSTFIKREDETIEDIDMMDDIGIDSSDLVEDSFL
T3 sequence (P07949 29-1114 S904F): as the sequence (P07949 29-1114 M918T) above, with S876F, T890M counted along it
T14 sequence (P21802 22-821 V564F): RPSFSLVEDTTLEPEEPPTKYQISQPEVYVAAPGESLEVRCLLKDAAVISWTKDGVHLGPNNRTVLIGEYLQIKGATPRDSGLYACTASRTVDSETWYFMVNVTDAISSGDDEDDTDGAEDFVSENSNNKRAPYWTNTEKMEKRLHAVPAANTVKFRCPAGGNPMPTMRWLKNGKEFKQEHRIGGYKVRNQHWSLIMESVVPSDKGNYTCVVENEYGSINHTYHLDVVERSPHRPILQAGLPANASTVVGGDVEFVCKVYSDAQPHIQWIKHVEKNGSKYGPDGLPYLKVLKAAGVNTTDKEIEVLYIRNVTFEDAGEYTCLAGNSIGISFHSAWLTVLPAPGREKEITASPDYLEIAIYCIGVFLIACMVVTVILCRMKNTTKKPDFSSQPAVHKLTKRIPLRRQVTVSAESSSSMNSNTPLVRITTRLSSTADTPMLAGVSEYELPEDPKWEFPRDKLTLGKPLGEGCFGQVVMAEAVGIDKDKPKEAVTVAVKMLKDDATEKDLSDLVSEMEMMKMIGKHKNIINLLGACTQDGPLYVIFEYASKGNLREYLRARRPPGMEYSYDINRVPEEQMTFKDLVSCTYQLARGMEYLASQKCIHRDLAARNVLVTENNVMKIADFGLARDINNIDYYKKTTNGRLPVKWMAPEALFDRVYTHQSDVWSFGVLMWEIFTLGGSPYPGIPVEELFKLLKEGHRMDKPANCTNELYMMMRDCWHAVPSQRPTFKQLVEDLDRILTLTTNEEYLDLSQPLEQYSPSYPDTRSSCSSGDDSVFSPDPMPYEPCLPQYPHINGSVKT
T6 sequence (P22612 whole entry): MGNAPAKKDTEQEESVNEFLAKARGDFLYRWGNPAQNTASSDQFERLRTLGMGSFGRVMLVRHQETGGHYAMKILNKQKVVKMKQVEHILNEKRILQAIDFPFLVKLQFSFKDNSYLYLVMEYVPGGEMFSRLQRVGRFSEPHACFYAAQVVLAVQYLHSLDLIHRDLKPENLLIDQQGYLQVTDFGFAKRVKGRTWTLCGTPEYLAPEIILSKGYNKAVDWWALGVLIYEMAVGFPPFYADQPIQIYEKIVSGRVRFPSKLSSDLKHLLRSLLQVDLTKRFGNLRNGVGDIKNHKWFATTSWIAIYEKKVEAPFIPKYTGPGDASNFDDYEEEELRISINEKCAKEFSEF
T11 sequence (P07949 29-1114 R749T): as the sequence (P07949 29-1114 M918T) above, with R721T, T890M counted along it

As for `CC(C)c1cc(-c2n[nH]c(=O)n2-c2ccc3c(ccn3C)c2)c(O)cc1O` [Ganetespib (STA9090)], the remaining activity at 10 µM on 382 unique human kinases [1] was found to be 89.8%; at 382 unique human kinases [2], 85.8%; at 382 unique human kinases [3] it was 61.6%; on 382 unique human kinases [4] it was 82.2%; at 382 unique human kinases [5], 86.5%; at 382 unique human kinases [6], 101%. Further, the results for the remaining activity at 10 µM at 382 unique human kinases [7], at 382 unique human kinases [8] and at 382 unique human kinases [9] were 142%, 69.6% and 85.7%, respectively.
`CC(C)c1cc(-c2n[nH]c(=O)n2-c2ccc3c(ccn3C)c2)c(O)cc1O` [Ganetespib]: the remaining activity at 10 µM was 97.7% at 382 unique human kinases [10]; 106% at 382 unique human kinases [11]; 31% on 382 unique human kinases [12]; 76.2% at 382 unique human kinases [13]; 41.2% on 382 unique human kinases [14]; 52.5% on 382 unique human kinases [15]. For the same compound, the remaining activity at 10 µM on 382 unique human kinases [16] was 50.7%; on 382 unique human kinases [17], 92.9%.
With `CCNC(=O)c1noc(-c2cc(C(C)C)c(O)cc2O)c1-c1ccc(CN2CCOCC2)cc1` [Luminespib (AUY-922)], the “% Enzyme Activity (relative to DMSO controls)” value at 382 unique human kinases [1] is recorded as 97.96%; on 382 unique human kinases [2], 96.28%; at 382 unique human kinases [3], 101.49%; on 382 unique human kinases [4], 99.56%; on 382 unique human kinases [5], 100.14%; at 382 unique human kinases [6], 102.38%. Besides, the “% Enzyme Activity (relative to DMSO controls)” value on 382 unique human kinases [7] was 113.96%; on 382 unique human kinases [8], 94.59%; on 382 unique human kinases [9], 112.88%. In addition, the remaining activity at 10 µM amounted to 98.6% at 382 unique human kinases [1]; 96.7% on 382 unique human kinases [2]; 102% at 382 unique human kinases [3]; 105% on 382 unique human kinases [4]; 100% on 382 unique human kinases [5]; 104% at 382 unique human kinases [6]. The remaining activity at 10 µM at 382 unique human kinases [7] is 114%; on 382 unique human kinases [8] it was 97.2%; at 382 unique human kinases [9], 116%.
Take `CCNC(=O)c1noc(-c2cc(C(C)C)c(O)cc2O)c1-c1ccc(CN2CCOCC2)cc1` [Luminespib]: the “% Enzyme Activity (relative to DMSO controls)” value worked out at 96.83% on 382 unique human kinases [10]; 97.79% at 382 unique human kinases [11]; 70.41% on 382 unique human kinases [12]; 50.60% at 382 unique human kinases [13]; 98.77% on 382 unique human kinases [14]; 105.75% on 382 unique human kinases [15]. Further, the “% Enzyme Activity (relative to DMSO controls)” value came out at 97.77% at 382 unique human kinases [16] and 94.32% on 382 unique human kinases [17]. The remaining activity at 10 µM was 97.5% at 382 unique human kinases [10]; 98.4% at 382 unique human kinases [11]; 70.9% at 382 unique human kinases [12]; 59.9% at 382 unique human kinases [13]; 99.4% at 382 unique human kinases [14]; 108% at 382 unique human kinases [15]. Besides, the remaining activity at 10 µM on 382 unique human kinases [16] came out at 98.7%; at 382 unique human kinases [17], 96%.
